Measurements as given in patent US6503922B2, “Bridged nicotine compounds for use in the treatment of CNS pathologies” (priority 2000, dated 2003).
Like-named read-outs stand apart in the source and are kept apart here.

Columns and labels:
[1] = target: T1, α4β2-containing receptor subtype (Rattus norvegicus, UniProt P09483+P12390); assay: [3H]-NIC binding assay, rat striatal membranes; conditions: compared with NONI, NDNI, DHβE
T1 construct: Striata from two rats were dissected, pooled, and homogenized; from tissue; host or cells: rat striatal membranes
Protocol: Striata from two rats were dissected, pooled, and homogenized with a Tekmar polytron in 10 vol of ice-cold modified Krebs-HEPES buffer (20 mM HEPES, 118 mM NaCl, 4.8 mM KCl, 2.5 mM CaCl2, 1.2 mM MgSO4, adjusted to pH 7.5). The homogenates were incubated at 37° C. for 5 minutes and centrifuged at 15,000 g for 20 minutes. The pellet was resuspended in 10 volumes of ice-cold MilliQ water, incubated for 5 minutes at 37° C., and centrifuged at 15,000 g for 20 minutes. The second pellet was then resuspended in 10 volumes of fresh ice-cold 10% Krebs-HEPES buffer, incubated at 37° C., and centrifuged at 15,000 g for 20 minutes. The latter sequence of resuspension, incubation, and centrifugation was repeated. The pellet was frozen under fresh 10% Krebs-HEPES buffer and stored at −40° C. until assayed. Upon assay, the pellet was resuspended in the Krebs-HEPES buffer, incubated at 37° C. for 5 minutes, and centrifuged at 15,000 g for 20 minutes. The final pellet was resuspended in 3.6 ml ice-cold MilliQ water which provided for approximately 200 μg protein per 100 μl aliquot. Competition assays were performed in triplicate in a final volume of 200 μl Krebs-HEPES buffer containing […] Tris buffer (pH 7.5 at 4° C.). Reactions were initiated by addition of 100 μl of membrane suspension to […] [^3H]-NIC (50 μl). and one of at least nine concentrations of analog (50 μl). After a 90 minutes incubation at […], reactions were terminated by dilution of the samples with 3 ml of ice-cold Krebs-HEPES buffer followed immediately by filtration through Whatman GF/B. glass fiber filters (presoaked in 0.5% polyethyleneimine) using a Brandel Cell Harvester. Filters were rinsed three times with. 3 ml of ice-cold Krebs-HEPES buffer, transferred to scintillation vials, and 5 ml scintillation cocktail (Research Products International Corp., Mt. Prospect, Ill.) added. Nonspecific binding determined in triplicate was defined as binding in the presence of 10 μM NIC. Binding parameters were determined using the weighted, least squares regression.
The conformationally restricted nicotine analogs were evaluated for their ability to displace [^3H]-NIC binding from rat striatal membranes.

[2] = target: T2, α7-type neuronal nicotinic acetylcholine receptors (Rattus norvegicus, UniProt Q05941); assay: [3H]-MLA binding assay, rat brain membranes; conditions: for remaining activity at 10 µM: compound 10 μM, 2.5 nM [3H]-MLA, whole brain binding relative to control
T2 construct: The brain tissue was homogenized with a Tekmar Polytron; from tissue; host or cells: male Sprague-Dawley rat brain membranes (whole brain without cortex, striatum and cerebellum)

[3] = target: T1, α4β2-containing receptor subtype; assay: [3H]-NIC binding assay, rat striatal membranes; conditions: for Specific binding of [3H]-NIC in the presence of compound: 3 nM [3H]-NIC, mean ± S.E.M of 3 experiments

T2 sequence (Q05941 23-502): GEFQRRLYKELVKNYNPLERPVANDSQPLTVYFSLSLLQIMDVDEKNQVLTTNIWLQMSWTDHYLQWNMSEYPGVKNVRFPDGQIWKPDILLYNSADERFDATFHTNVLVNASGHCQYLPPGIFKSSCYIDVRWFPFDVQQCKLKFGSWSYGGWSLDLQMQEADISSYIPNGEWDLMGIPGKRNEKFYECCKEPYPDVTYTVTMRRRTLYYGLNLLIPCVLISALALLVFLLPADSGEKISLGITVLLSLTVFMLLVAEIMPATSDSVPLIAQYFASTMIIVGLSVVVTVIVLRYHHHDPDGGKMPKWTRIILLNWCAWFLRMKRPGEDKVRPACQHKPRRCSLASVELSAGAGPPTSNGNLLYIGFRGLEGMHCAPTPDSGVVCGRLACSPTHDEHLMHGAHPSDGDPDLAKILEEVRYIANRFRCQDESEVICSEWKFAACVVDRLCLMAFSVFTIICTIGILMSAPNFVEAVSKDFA
T1 sequence (P09483 31-630): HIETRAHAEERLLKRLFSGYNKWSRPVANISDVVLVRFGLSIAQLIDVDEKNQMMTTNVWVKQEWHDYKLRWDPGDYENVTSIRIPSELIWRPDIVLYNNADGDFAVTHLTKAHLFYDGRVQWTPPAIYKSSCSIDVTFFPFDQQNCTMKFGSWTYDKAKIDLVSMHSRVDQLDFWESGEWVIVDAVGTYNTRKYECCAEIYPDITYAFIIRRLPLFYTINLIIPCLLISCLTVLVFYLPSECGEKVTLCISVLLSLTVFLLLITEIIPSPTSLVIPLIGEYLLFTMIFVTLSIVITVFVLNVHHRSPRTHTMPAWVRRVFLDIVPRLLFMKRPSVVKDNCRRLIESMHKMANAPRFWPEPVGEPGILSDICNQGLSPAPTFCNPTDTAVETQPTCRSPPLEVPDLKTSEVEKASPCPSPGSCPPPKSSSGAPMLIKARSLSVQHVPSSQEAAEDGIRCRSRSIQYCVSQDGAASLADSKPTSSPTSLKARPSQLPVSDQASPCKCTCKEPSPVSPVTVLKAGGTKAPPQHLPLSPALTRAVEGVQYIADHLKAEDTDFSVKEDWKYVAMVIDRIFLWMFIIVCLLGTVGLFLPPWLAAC
T1 sequence (P12390 25-500): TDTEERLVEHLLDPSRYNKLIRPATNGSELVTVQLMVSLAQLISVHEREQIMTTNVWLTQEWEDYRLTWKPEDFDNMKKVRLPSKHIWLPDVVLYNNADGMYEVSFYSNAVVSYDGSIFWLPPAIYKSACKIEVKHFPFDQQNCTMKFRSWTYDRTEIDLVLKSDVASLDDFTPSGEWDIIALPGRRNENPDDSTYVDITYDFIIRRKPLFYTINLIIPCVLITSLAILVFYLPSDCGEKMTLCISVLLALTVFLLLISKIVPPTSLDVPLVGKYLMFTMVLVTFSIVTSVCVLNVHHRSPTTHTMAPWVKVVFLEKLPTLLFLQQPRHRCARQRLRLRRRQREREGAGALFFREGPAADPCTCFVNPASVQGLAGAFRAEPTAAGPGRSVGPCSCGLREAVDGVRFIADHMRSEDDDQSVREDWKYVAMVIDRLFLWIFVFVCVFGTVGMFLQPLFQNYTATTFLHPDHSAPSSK

Row | Compound | Affinity for the [3H]-NIC binding site (in words) [1] | remaining activity at 10 µM [2] [%] | Specific binding of [3H]-NIC in the presence of compound ([3]; compound 1 μM) | Specific binding of [3H]-NIC in the presence of compound ([3]; compound 10 μM) | Specific binding of [3H]-NIC in the presence of compound ([3]; compound 100 μM) | Affinity for the [3H]-NIC binding site (in words) [3] | Ki [2] [nM]
1 | CCCCCCCC[n+]1cccc2c1CCC1CCN(C)C21 (stereo not shown) [BCO] | much lower affinity for the [^3H]-NIC binding site compared to NONI | 93.6 | 50.5 ± 1.2 fmol/mg of protein | 39.7 ± 1.4 fmol/mg of protein | 13.5 ± 0.5 fmol/mg of protein | – | –
2 | CCCCCCCCCCCC[n+]1ccc2c(c1)[C@@H]1[C@H](CC2)CCN1C.[I-] (relative stereo) [ACDD, cis-8-dodecyl-1-methyl-2,3,3a,4,5,9b-hexahydro-1H-pyrrolo[3,2-h]isoquinolin-8-ium iodide] | – | 102 | 49.5 ± 0.7 fmol/mg of protein | 49.8 ± 2.9 fmol/mg of protein | 44.5 ± 1.7 fmol/mg of protein | – | –
3 | CCCCCCCCC[n+]1cccc2c1CCC1CCN(C)C21 (stereo not drawn) [BCN, cis-1-methyl-6-nonyl-2,3,3a,4,5,9b-hexahydro-1H-pyrrolo[2,3-f]isoquinolin-6-ium iodide] | – | 94 | 49.6 ± 1.2 fmol/mg of protein | 47.7 ± 2.1 fmol/mg of protein | 36.2 ± 0.3 fmol/mg of protein | – | –
4 | CCCCCCCCCC[n+]1cccc([C@@H]2CCCN2C)c1.[I-] [NDNI, reference compound] | – | – | – | – | – | high affinity | –
5 | CCCCCCCCCCC[n+]1ccc2c(c1)[C@@H]1[C@H](CC2)CCN1C.[I-] (relative stereo) [ACU, cis-1-methyl-8-undecyl-2,3,3a,4,5,9b-hexahydro-1H-pyrrolo[3,2-h]isoquinolin-8-ium iodide] | – | 100 | 51.3 ± 2.0 fmol/mg of protein | 49.0 ± 0.3 fmol/mg of protein | 42.7 ± 2.1 fmol/mg of protein | – | –
6 | CCCCCCCCCC[n+]1cccc2c1CCC1CCN(C)C21 (stereo not shown) [BCD] | lost their ability to interact with this binding site | 96.2 | 54.9 ± 0.7 fmol/mg of protein | 54.4 ± 1.1 fmol/mg of protein | 47.9 ± 2.8 fmol/mg of protein | – | –
7 | CCCCCCCCCC[n+]1ccc2c(c1)[C@@H]1[C@H](CC2)CCN1C.[I-] (relative stereo) [ACD, cis-8-decyl-1-methyl-2,3,3a,4,5,9b-hexahydro-1H-pyrrolo[3,2-h]isoquinolin-8-ium iodide] | lost their ability to interact with this binding site | 102 | 50.3 ± 3.7 fmol/mg of protein | 52.1 ± 2.6 fmol/mg of protein | 37.0 ± 1.7 fmol/mg of protein | – | –
8 | CCCCCCCCCCC[n+]1cccc2c1CCC1CCN(C)C21 (stereo not shown) [BCU] | – | 92.3 | 56.1 ± 0.6 fmol/mg of protein | 53.9 ± 1.2 fmol/mg of protein | 37.3 ± 1.8 fmol/mg of protein | – | –
9 | α-Bungarotoxin [reference compound] | – | – | – | – | – | – | 28.6 ± 5.4
10 | CCCCCCCCC[n+]1ccc2c(c1)[C@@H]1[C@H](CC2)CCN1C.[I-] (relative stereo) [ACN, cis-1-methyl-8-nonyl-2,3,3a,4,5,9b-hexahydro-1H-pyrrolo[3,2-h]isoquinolin-8-ium iodide] | – | 101 | 49.8 ± 3.6 fmol/mg of protein | 48.9 ± 2.9 fmol/mg of protein | 30.2 ± 2.2 fmol/mg of protein | – | –
11 | CCCCCCCC[n+]1ccc2c(c1)[C@@H]1[C@H](CC2)CCN1C.[I-] (relative stereo) [ACO, cis-1-methyl-8-octyl-2,3,3a,4,5,9b-hexahydro-1H-pyrrolo[3,2-h]isoquinolin-8-ium iodide] | much lower affinity for the [^3H]-NIC binding site compared to NONI | 91.5 | 44.5 ± 0.4 fmol/mg of protein | 42.2 ± 0.5 fmol/mg of protein | 30.2 ± 6.9 fmol/mg of protein | – | –
12 | CCCCCCCCCCCC[n+]1cccc2c1CCC1CCN(C)C21 (stereo not drawn) [BCDD, cis-6-dodecyl-1-methyl-2,3,3a,4,5,9b-hexahydro-1H-pyrrolo[2,3-f]isoquinolin-6-ium iodide] | – | 94.2 | 43.7 ± 4.5 fmol/mg of protein | 43.0 ± 4.7 fmol/mg of protein | 34.0 ± 2.1 fmol/mg of protein | – | –
